Source: US4593090A, “Novel nitrosourea compounds, method for preparing same, and pharmaceutical composition containing same” (Gogo Kimura, priority 1981, dated 1986)
Read-outs that look alike come from different tables or passages of the source.

Assays:
Leukemia L1210 [1] = assay: Activity against Leukemia L1210, intraperitoneal, increase in life span of mice; format: in vivo, female mice (BDF1 family)
Method in brief: (§1)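 Dosing started 24 h after ip implantation of 1×10^5 L1210 cells into groups of 6 female BDF1 mice, by ip or oral route daily for 5 consecutive days. Survival was followed for 60 days; increase in life span was scored against untreated mice, with therapeutic ratio from optimum dose over ILS30 dose.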

Leukemia L1210 [2] = assay: Activity against Leukemia L1210, oral, increase in life span of mice; format: in vivo, female mice (BDF1 family)
Method in brief: as §1

Ehrlich acites carcinoma = assay: Growth-inhibiting effect against Ehrlich acites carcinoma; format: in vivo, male mice; details: Mus musculus, Ehrlich, 120 h, 5 days; for response vs control in vivo at 25 mg/kg: 25 mg/kg/day ip; for response vs control in vivo at 100 mg/kg: 100 mg/kg/day ip
Method in brief: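 Activity graded from T/C% of total packed ascites cell volume on day 7 (treated vs untreated): - 100-66, + 65-41, ++ 40-11, +++ 10-0. Groups of 6 male mice bore 1×10^7 i.p.-implanted cells and received compound (1% Nikkol HCO-60) i.p. daily for 5 days from 24 hrs after implantation.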

[3] = Acute toxicity (LD50, Behrens-Karber method); format: in vivo, ICR mice; details: mouse, in vivo, ip, mortality during 30 days
Experimental: Test compounds, dissolved or suspended in 0.5% aqueous CMC, were each intraperitoneally administered to ICR mice in a dose of 0.1 ml per 10 g body weight. LD50 (mg/kg) value of each test compound was calculated from the mortality of mice during 30 days by the Behrens-Karber method.

[4] = Diuretic activity, acute sodium loaded mouse screening test; format: in vivo, male mice; details: 50 mg/kg oral in 1% saline
Experimental: The diuretic activity of the compounds of this invention was assayed by the diuresis screening test referred to as "acute sodium loaded mouse". This test was carried out by the following method.
The acute sodium loaded mouse screening test was carried out by using a 10-membered group of male mice (each weighing 18 to 24 g). Test compounds were incorporated in 1% saline (NaCl) solution and orally administered in a volume of 10 ml/kg. The mice were placed in metabolic cages. Each treated group consisted of 10-members. Five members were placed in one cage. Tests were conducted by oral administrations of (A) 1% saline (NaCl) solution to the control group and (B) 1% saline (NaCl) solution containing a test compound according to this invention.
The determination was carried out for sodium, potassium, and chlorine in each pooled urine sample. The determination of sodium and potassium was carried out by flame photometer. Chlorine was determined by chloride analysis apparatus. The analytical values of sodium, potassium, and chlorine were shown with an average mg equivalent (m Eq)/Kg/5 hours, and the diuretic activity was shown with an average urine volume (ml)/Kg/5 hours.

COCCN(C[C@H]1O[C@H](OCC(C)C)[C@@H](O)[C@@H](O)[C@@H]1O)C(=O)N(CCCl)N=O [Compound 135, 3-(2-methoxyethyl)-3-(isobutyl α-D-mannopyranose-6-yl)-1-(2-chloroethyl)-1-nitrosourea]
ED (maximum ILS) (Leukemia L1210 [1]; Mus musculus, L1210, ip, ip once a day for 5 successive days, daily dosage giving maximum increase of life span, read-out: O.D. (optimum dosage)): 200 mg/kg
ED30 (Leukemia L1210 [1]; Mus musculus, L1210, ip, ip once a day for 5 successive days, daily dosage increasing average survival days by 30%, read-out: ILS30): 2.92 mg/kg
Survivors after 60 days (Leukemia L1210 [1]; ip, 6-membered group): 6/6
Max. ILS % (Leukemia L1210 [1]; ip, 60-day observation, versus control): > 700%
Therapeutic ratio TR (Leukemia L1210 [1]; ip, O.D./ILS30): 68.5
ED (maximum ILS) (Leukemia L1210 [2]; Mus musculus, L1210, oral once a day for 5 successive days, daily dosage giving maximum increase of life span, read-out: O.D. (optimum dosage)): 240 mg/kg
ED30 (Leukemia L1210 [2]; Mus musculus, L1210, oral once a day for 5 successive days, daily dosage increasing average survival days by 30%, read-out: ILS30): 9.92 mg/kg
Survivors after 60 days (Leukemia L1210 [2]; oral, 6-membered group): 6/6
Max. ILS % (Leukemia L1210 [2]; oral, 60-day observation, versus control): > 700%
Therapeutic ratio TR (Leukemia L1210 [2]; oral, O.D./ILS30): 24.2
response vs control in vivo at 25 mg/kg (Ehrlich acites carcinoma; read-out: Activity): 0 to 10%
response vs control in vivo at 25 mg/kg (Ehrlich acites carcinoma; read-out: T/C %): 0%
response vs control in vivo at 100 mg/kg (Ehrlich acites carcinoma; read-out: Activity): 0 to 10%
response vs control in vivo at 100 mg/kg (Ehrlich acites carcinoma; read-out: T/C %): 0%
LD50 at 720 h [3]: 620 mg/kg
Urine volume [4]: 9.7 ml/kg/5 hrs.
Cl^- ([4]; urine): 0.8 mEq/kg/5 hrs.
K^+ ([4]; urine): 0.9 mEq/kg/5 hrs.
Na^+ ([4]; urine): 0.7 mEq/kg/5 hrs.
